According to patent US12479843B2, “Spiro ring-containing quinazoline compounds” (WIGEN BIOMEDICINE TECHNOLOGY (SHANGHAI) CO., LTD., priority 2019, dated 2025):

Tests used:
[1] = test system: H358 cells; experiment: Antiproliferative activity against H358 cells (Cell Titer Glow, ultra-low attachment plate); format: cell-based; conditions: Homo sapiens, NCI-H358, 72 h, 96-well ultra-low attachment plate, three days after addition of compound, Cell Titer Glow
Procedure: 2500 H358 cells were seeded in a 96-well ultra-low attachment plate (corning, 7007). After one day of growth, a serially diluted compound (a maximum concentration of 5 μM, 5-fold dilution, a total of five doses) was added. Three days after the addition of the compound, Cell Titer Glow (Promega, G9681) was added to evaluate pellet growth, and the IC50 value was calculated.

[2] = test system: pERK level in H358 cells; experiment: pERK and ERK protein content assay in H358 cells (ELISA); format: cell-based; conditions: Homo sapiens, NCI-H358, compound 1 μM, 24 h, pERK/ERK ratio compared with DMSO group, read-out: Inhibition rate (%) of pERK level
Procedure: H358 cells were seeded in a 24-well plate. After one day of growth, a test compound (at a concentration of 1 μM) was added. After 24 h of action of the compound, the cells were lysed, and the cell lysate was transferred to a 96-well ELISA plate. The levels of pERK and ERK in the lysate were measured using an ELISA kit (abcam 176660). The ratio of pERK to ERK was calculated and compared with that of the DMSO group, and the percentage of inhibition of pERK activity by the compound was calculated.

| SMILES | IC50 [1] [nM] | inhibition at 1 µM [2] [%] |
| --- | --- | --- |
| C=C(C(=O)N1CC2(CCN(c3nc(OC4CCN(CCOC)CC4)nc4c(OCC(F)(F)F)c(-c5c(C)ccc6[nH]ncc56)c(C5CC5)cc34)CC2)C1)c1cncnc1 [Compound 21] | < 300 | > 90 |
| C=C(C(=O)N1CC2(CCN(c3nc(OC4CCN(CCOC)CC4)nc4c(OCC(F)(F)F)c(-c5c(C)ccc6[nH]ncc56)c(C5CC5)cc34)CC2)C1)n1ccnc1 [Compound 22] | 300 to 1000 | 50 to 90 |
| C=C(C(=O)N1CC2(CCN(c3nc(OC4CCN(CCOC)CC4)nc4c(OCC(F)(F)F)c(-c5c(C)ccc6[nH]ncc56)c(C5CC5)cc34)CC2)C1)n1cncn1 [Compound 23] | < 300 | > 90 |
| C=C(C(=O)N1CC2(CCN(c3nc(OC4CCN(CCOC)CC4)nc4c(OCC(F)(F)F)c(-c5c(C)ccc6[nH]ncc56)c(C5CC5)cc34)CC2)C1)n1cccc1 [Compound 24] | 300 to 1000 | 50 to 90 |
| C=C(C(=O)N1CC2(CCN(c3nc(OC4CCN(CCOC)CC4)nc4c(OCC(F)(F)F)c(-c5c(C)ccc6[nH]ncc56)c(C5CC5)cc34)CC2)C1)n1ccnn1 [Compound 25] | < 300 | > 90 |
| C=CC(=O)N1CC2(C1)CN(c1nc(OC3CCN(CCOC)CC3)nc3c(OCC(F)(F)F)c(-c4c(C)ccc5[nH]ncc45)c(C4CC4)cc13)C2 [Compound 26] | 300 to 1000 | 50 to 90 |
| C=CC(=O)N1CCC2(CC1)CN(c1nc(OC3CCN(CCOC)CC3)nc3c(OCC(F)(F)F)c(-c4c(C)ccc5[nH]ncc45)c(C4CC4)cc13)C2 [Compound 27] | 300 to 1000 | 50 to 90 |
| C=C(F)C(=O)N1CC2(CCN(c3nc(OC4CCN(CCOC)CC4)nc4c(OCC(F)(F)F)c(-c5c(F)ccc6cn[nH]c56)c(C5CC5)cc34)CC2)C1 [Compound 34] | < 300 | > 90 |
| C=CC(=O)N1CC2(CCN(c3nc(OC4CCN(CCOC)CC4)nc4c(OCC(F)(F)F)c(-c5c(F)ccc6[nH]cnc56)c(C5CC5)cc34)CC2)C1 [Compound 37] | 300 to 1000 | 50 to 90 |
| C=C(F)C(=O)N1CC2(CCN(c3nc(OC4CCN(CCOC)CC4)nc4c(OCC(F)(F)F)c(-c5c(F)ccc6[nH]cnc56)c(C5CC5)cc34)CC2)C1 [Compound 38] | 300 to 1000 | > 90 |
| C=CC(=O)N1CC2(CCN(c3nc(OC4CCN(CCOC)CC4)nc4c(OCC(F)(F)F)c(-c5c(C)ccc6[nH]nnc56)c(C5CC5)cc34)CC2)C1 [Compound 39] | < 300 | > 90 |
| C=C(F)C(=O)N1CC2(CCN(c3nc(OC4CCN(CCOC)CC4)nc4c(OCC(F)(F)F)c(-c5c(C)ccc6[nH]nnc56)c(C5CC5)cc34)CC2)C1 [Compound 40] | < 300 | > 90 |
| C=CC(=O)N1CC2(CCN(c3nc(OC4CCN(CCOC)CC4)nc4c(OCC(F)(F)F)c(-c5c(C)ccc6cc[nH]c(=O)c56)c(C5CC5)cc34)CC2)C1 [Compound 41] | < 300 | > 90 |
| C=C(F)C(=O)N1CC2(CCN(c3nc(OC4CCN(CCOC)CC4)nc4c(OCC(F)(F)F)c(-c5c(C)ccc6cc[nH]c(=O)c56)c(C5CC5)cc34)CC2)C1 [Compound 42] | 300 to 1000 | > 90 |
| C=CC(=O)N1CC2(CCN(c3nc(OC4CCN(CCOC)CC4)nc4c(OCC(F)(F)F)c(-c5c(C)ccc6nc[nH]c(=O)c56)c(C5CC5)cc34)CC2)C1 [Compound 43] | < 300 | > 90 |
| C=C(F)C(=O)N1CC2(CCN(c3nc(OC4CCN(CCOC)CC4)nc4c(OCC(F)(F)F)c(-c5c(C)ccc6nc[nH]c(=O)c56)c(C5CC5)cc34)CC2)C1 [Compound 44] | < 300 | > 90 |
| C=CC(=O)N1CC2(CCN(c3nc(OC4CCN(CCOC)CC4)nc4c(OCC(F)(F)F)c(-c5c(O)cccc5F)c(C5CC5)cc34)CC2)C1 [Compound 45] | < 300 | > 90 |
| C=C(F)C(=O)N1CC2(CCN(c3nc(OC4CCN(CCOC)CC4)nc4c(OCC(F)(F)F)c(-c5c(O)cccc5F)c(C5CC5)cc34)CC2)C1 [Compound 46] | < 300 | > 90 |
| C=CC(=O)N1CC2(CCN(c3nc(OC4CCN(CCOC)CC4)nc4c(OCC(F)(F)F)c(-c5c(N)cccc5F)c(C5CC5)cc34)CC2)C1 [Compound 47] | < 300 | > 90 |

| SMILES | IC50 [1] [nM] | inhibition at 1 µM [2] [%] |
| --- | --- | --- |
| C=C(F)C(=O)N1CC2(CCN(c3nc(OC4CCN(CCOC)CC4)nc4c(OCC(F)(F)F)c(-c5c(N)cccc5F)c(C5CC5)cc34)CC2)C1 [Compound 48] | 300 to 1000 | > 90 |
| C=CC(=O)N1CC2(CCN(c3nc(OC4CCN(CCOC)CC4)nc4c(OCC(F)(F)F)c(-c5c(N)c(Cl)cc(Cl)c5F)c(C5CC5)cc34)CC2)C1 [Compound 49] | < 300 | > 90 |
| C=C(F)C(=O)N1CC2(CCN(c3nc(OC4CCN(CCOC)CC4)nc4c(OCC(F)(F)F)c(-c5c(N)c(Cl)cc(Cl)c5F)c(C5CC5)cc34)CC2)C1 [Compound 50] | < 300 | > 90 |
| C=CC(=O)N1CC2(CCN(c3nc(OC4CCN(CCOC)CC4)nc4c(OCC(F)(F)F)c(-c5ccccc5F)c(C5CC5)cc34)CC2)C1 [Compound 51] | < 300 | > 90 |
| C=C(F)C(=O)N1CC2(CCN(c3nc(OC4CCN(CCOC)CC4)nc4c(OCC(F)(F)F)c(-c5ccccc5F)c(C5CC5)cc34)CC2)C1 [Compound 52] | < 300 | > 90 |
| C=CC(=O)N1CC2(CCN(c3nc(OC4CCN(CCOC)CC4)nc4c(OCC(F)(F)F)c(-c5c(F)cccc5F)c(C5CC5)cc34)CC2)C1 [Compound 53] | < 300 | > 90 |
| C=C(F)C(=O)N1CC2(CCN(c3nc(OC4CCN(CCOC)CC4)nc4c(OCC(F)(F)F)c(-c5c(F)cccc5F)c(C5CC5)cc34)CC2)C1 [Compound 54] | < 300 | > 90 |
| C=CC(=O)N1CC2(CCN(c3nc(OC4CCN(CCOC)CC4)nc4c(OCC(F)(F)F)c(-c5ccccc5C(F)(F)F)c(C5CC5)cc34)CC2)C1 [Compound 55] | < 300 | > 90 |
| C=CC(=O)N1CC2(CCN(c3nc(OC4CCN(CCOC)CC4)nc4c(OCC(F)(F)F)c(-c5ccc(F)cc5F)c(C5CC5)cc34)CC2)C1 [Compound 56] | < 300 | > 90 |
| C=CC(=O)N1CC2(CCN(c3nc(OC4CCN(CCOC)CC4)nc4c(OCC(F)(F)F)c(-c5cc(O)ccc5F)c(C5CC5)cc34)CC2)C1 [Compound 57] | < 300 | > 90 |
| C=CC(=O)N1CC2(CCN(c3nc(OC4CCN(CCOC)CC4)nc4c(OCC(F)(F)F)c(-c5cc(O)ccc5Cl)c(C5CC5)cc34)CC2)C1 [Compound 58] | < 300 | > 90 |
| C=CC(=O)N1CC2(CCN(c3nc(OC4CCN(CCOC)CC4)nc4c(OCC(F)(F)F)c(-c5c(O)ccc6ccccc56)c(C5CC5)cc34)CC2)C1 [Compound 59] | < 300 | > 90 |
| C=CC(=O)N1CC2(CCN(c3nc(OC4CCN(CCOC)CC4)nc4c(OCC(F)(F)F)c(-c5cc(O)cc6ccccc56)c(C5CC5)cc34)CC2)C1 [Compound 60] | < 300 | > 90 |
| C=C(F)C(=O)N1CC2(CCN(c3nc(OC4CCN(C)CC4)nc4c(OCC(F)(F)F)c(-c5c(C)ccc6[nH]ncc56)c(C5CC5)cc34)CC2)C1 [Compound 61] | < 300 | > 90 |
| C=C(F)C(=O)N1CC2(CCN(c3nc(OC4CCN(C5COC5)CC4)nc4c(OCC(F)(F)F)c(-c5c(C)ccc6[nH]ncc56)c(C5CC5)cc34)CC2)C1 [Compound 62] | < 300 | > 90 |
| C=C(F)C(=O)N1CC2(CCN(c3nc(OC4CCN(CCCOC)CC4)nc4c(OCC(F)(F)F)c(-c5c(C)ccc6[nH]ncc56)c(C5CC5)cc34)CC2)C1 [Compound 63] | < 300 | > 90 |
| C=C(F)C(=O)N1CC2(CCN(c3nc(O[C@H]4CCN(C)C4)nc4c(OCC(F)(F)F)c(-c5c(C)ccc6[nH]ncc56)c(C5CC5)cc34)CC2)C1 [Compound 64] | 300 to 1000 | 50 to 90 |
| C=C(F)C(=O)N1CC2(CCN(c3nc(O[C@H]4CCN(CCOC)C4)nc4c(OCC(F)(F)F)c(-c5c(C)ccc6[nH]ncc56)c(C5CC5)cc34)CC2)C1 [Compound 65] | < 300 | > 90 |
